Assay [1] can be described thus: In vivo analgesia, tail flick model. As to conditions: Rattus norvegicus. The method, then:
(§1) Various experimental procedures, well known in the art, are useful in the present invention to assess the analgesic effect of compounds, such as the “tail flick” and “hot plate” tests. The “tail flick” test can be performed by applying a noxious thermal stimulus to the rat's tail and determining the time until the nociceptive tail flick occurs.
(§2) In vivo Analgesia Experiments
The tail flick model was conducted according to D'Amour F. E. and Smith D. L. J. Pharmacol. Exp. Ther. 1941, 72, 74.

The next assay has as its target human opiate receptor μ (Homo sapiens, UniProt P35372). The assay can be described thus: Radioligand binding assay, human opiate receptor μ. The text has this:
Another assay useful in the present invention concerns determining the ability of a ligand to bind to a biological receptor utilizing a technique well known in the art referred to as a radioligand binding assay. This assay accurately determines the specific binding of a radioligand to a targeted receptor through the delineation of its total and nonspecific binding components. Total binding is defined as the amount of radioligand that remains following the rapid separation of the radioligand bound in a receptor preparation (cell homogenates or recombinate receptors) from that which is unbound. The nonspecific binding component is defined as the amount of radioligand that remains following separation of the reaction mixture consisting of receptor, radioligand and an excess of unlabeled ligand. Under this condition, the only radioligand that remains represents that which is bound to components other that receptor. The specific radioligand bound is determined by subtracting the nonspecific from total radioactivity bound. For a specific example of radioligand binding assay for μ-opioid receptor, see Wang, J. B. et al. FEBS Letters 1994, 338, 217.
(§3) Radioligand Binding Assays (IC50, μM)
(§4) The radiobinding assays for human opiate receptor μ, κ and δ are conducted according the procedures outlined by Maguire et al. (Eur. Pharmacol. 1992, 213, 219).

The next assay addresses human opiate receptor κ (Homo sapiens, UniProt P41145). Put plainly: Radioligand binding assay, human opiate receptor κ. The method, then:
as §3, §4

Assay [2] can be described thus: In vivo analgesia, hot plate test. The following applies: Rattus norvegicus.
Text: as §1, §2
(In general: Hot-plate and tail-flick tests time the reaction to a heat stimulus.)

In another assay the target is human opiate receptor δ (Homo sapiens, UniProt P41143). Put plainly: Radioligand binding assay, human opiate receptor δ. The method, then:
as §3, §4

[3] abbreviates: radioligand binding, human opiate receptor μ, read-out: μ (IC50).
The mark [4] stands for this setting: radioligand binding, human opiate receptor κ, read-out: κ (IC50).
The mark [5] stands for this setting: radioligand binding, human opiate receptor δ, read-out: δ (IC50).

Where two headings read alike, the source gives them in different places. Where only a bound is given, the exact number is not on record here.

human opiate receptor μ, sequence (P35372 whole entry): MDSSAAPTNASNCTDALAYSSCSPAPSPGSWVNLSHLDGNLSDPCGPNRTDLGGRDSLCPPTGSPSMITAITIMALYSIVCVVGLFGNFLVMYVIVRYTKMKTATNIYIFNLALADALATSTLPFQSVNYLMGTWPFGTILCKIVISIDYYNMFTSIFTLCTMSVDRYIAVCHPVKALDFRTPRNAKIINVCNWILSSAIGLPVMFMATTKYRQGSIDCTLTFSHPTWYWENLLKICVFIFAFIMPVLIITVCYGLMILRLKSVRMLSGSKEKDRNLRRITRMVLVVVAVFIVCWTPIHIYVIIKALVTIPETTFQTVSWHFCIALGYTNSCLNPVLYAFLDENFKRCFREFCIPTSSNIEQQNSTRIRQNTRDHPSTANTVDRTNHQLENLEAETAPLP
human opiate receptor κ, sequence (P41145 whole entry): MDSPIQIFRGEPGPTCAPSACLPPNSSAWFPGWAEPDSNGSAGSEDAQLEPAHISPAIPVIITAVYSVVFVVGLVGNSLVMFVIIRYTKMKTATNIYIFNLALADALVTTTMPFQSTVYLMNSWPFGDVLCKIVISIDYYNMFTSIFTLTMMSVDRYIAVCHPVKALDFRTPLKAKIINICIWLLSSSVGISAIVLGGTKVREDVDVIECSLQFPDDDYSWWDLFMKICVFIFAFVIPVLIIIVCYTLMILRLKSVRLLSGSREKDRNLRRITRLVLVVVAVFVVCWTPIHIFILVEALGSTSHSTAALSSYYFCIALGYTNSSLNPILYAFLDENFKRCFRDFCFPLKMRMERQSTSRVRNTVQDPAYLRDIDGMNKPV
human opiate receptor δ, sequence (P41143 whole entry): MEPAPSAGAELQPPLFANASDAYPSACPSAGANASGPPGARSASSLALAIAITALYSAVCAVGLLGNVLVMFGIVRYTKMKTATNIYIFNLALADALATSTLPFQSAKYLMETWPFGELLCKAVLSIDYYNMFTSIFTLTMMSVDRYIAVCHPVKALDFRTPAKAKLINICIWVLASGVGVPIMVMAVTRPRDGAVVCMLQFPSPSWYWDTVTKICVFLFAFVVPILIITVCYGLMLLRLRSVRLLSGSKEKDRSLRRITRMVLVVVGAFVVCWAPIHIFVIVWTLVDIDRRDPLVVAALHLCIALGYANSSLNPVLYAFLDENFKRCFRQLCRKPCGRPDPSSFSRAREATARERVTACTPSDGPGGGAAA

In the case of `CCC(=O)N(C[C@]12CN(CCc3ccccc3)CCC1CN(CCc1ccccc1)C2)c1ccccc1` (single isomer, unassigned) [Compound 38], the ED50 in assay [1] amounted to 0.18 mg/kg; in assay [2], 152 mg/kg. In addition, the IC50 at human opiate receptor μ (setting [3]) was less than 100 nM; at human opiate receptor κ (setting [4]), less than 5000 nM; on human opiate receptor δ (setting [5]), less than 1000 nM.
For the compound `COc1cccc(C(O)C23CN(CCc4ccccc4)CCC2CN(Cc2ccccc2)C3)c1` (centres unmarked) [Compound 14], the IC50 on human opiate receptor μ (setting [3]) is less than 1000 nM.
`CCC(=O)N(c1ccccc1)C(C)C12CN(CCc3ccccc3)CCC1CN(Cc1ccccc1)C2` (centres unmarked) [Compound 31]: the IC50 on human opiate receptor μ was less than 10 nM; on human opiate receptor κ, less than 5000 nM; on human opiate receptor δ it was less than 1000 nM.
`CCC(=O)N(CC12CN(CCc3ccccc3)CCC1CN(Cc1ccccc1)C2)c1ccccc1` (centres unmarked) [Compound 23]: the IC50 is less than 100 nM on human opiate receptor μ (setting [3]), less than 5000 nM at human opiate receptor κ (setting [4]) and less than 1000 nM on human opiate receptor δ (setting [5]).
Turning to `CCC(=O)N(CC12CN(C)CC1CCN(CCc1ccccc1)C2)c1ccccc1` (centres unmarked) [Compound 42], the IC50 on human opiate receptor μ (setting [3]) was less than 1000 nM.
For `C[C@H](N(C(=O)C1CCC1)c1ccccc1)C12CN(CCc3ccccc3)CCC1CN(Cc1ccccc1)C2` (some centres unmarked) [Compound 32], the values for the IC50 at human opiate receptor μ, on human opiate receptor κ and at human opiate receptor δ were less than 100 nM, less than 5000 nM and less than 1000 nM, respectively.
On to `C[C@@H](N(C(=O)C1CCC1)c1ccccc1)C12CN(CCc3ccccc3)CCC1CN(Cc1ccccc1)C2` (some centres unmarked) [Compound 33], for which the IC50 is less than 1000 nM at human opiate receptor μ, less than 5000 nM on human opiate receptor κ and less than 5000 nM at human opiate receptor δ.
Regarding `CCC(=O)N(CC12CN(CCc3ccccc3)CCC1CN(S(C)(=O)=O)C2)c1ccccc1` (centres unmarked) [Compound 41], the IC50 at human opiate receptor μ (setting [3]) is less than 1000 nM.
Take `O[C@H](c1ccccc1)C12CN(CCc3ccccc3)CCC1CN(Cc1ccccc1)C2` (some centres unmarked) [Compound 12]: the IC50 at human opiate receptor μ (setting [3]) was less than 1000 nM; at human opiate receptor κ (setting [4]) it was less than 5000 nM.
For the compound `CCC(=O)N(CC12CN(CCc3ccccc3)CCC1CN(CCc1ccccc1)C2)c1ccccc1` (centres unmarked) [Compound 36], the values for the IC50 at human opiate receptor μ, on human opiate receptor κ and on human opiate receptor δ were less than 10 nM, less than 5000 nM and less than 1000 nM, respectively.
On to `CCC(=O)N(CC12CN(CCc3ccccc3)CCC1CN(C(C)=O)C2)c1ccccc1` (centres unmarked) [Compound 40], for which the IC50 at human opiate receptor μ (setting [3]) was less than 1000 nM.
Turning to `CS(=O)(=O)N(CC12CN(CCc3ccccc3)CCC1CN(Cc1ccccc1)C2)c1ccccc1` (centres unmarked) [Compound 25], the figures for the IC50 on human opiate receptor μ (setting [3]) and at human opiate receptor κ (setting [4]) were less than 1000 nM and less than 10000 nM, respectively.
The corresponding values for `O[C@@H](c1ccccc1)C12CN(CCc3ccccc3)CCC1CN(Cc1ccccc1)C2` (some centres unmarked) [Compound 11] are less than 1000 nM and less than 5000 nM.
Regarding `CCC(=O)N(C[C@@]12CN(CCc3ccccc3)CCC1CN(CCc1ccccc1)C2)c1ccccc1` (single isomer, unassigned) [Compound 37], the ED50 is 0.05 mg/kg in assay [1] and 0.06 mg/kg in assay [2]. The IC50 on human opiate receptor μ (setting [3]) is less than 10 nM; on human opiate receptor κ (setting [4]), less than 1000 nM; on human opiate receptor δ (setting [5]) it was less than 1000 nM.

As a reminder, the ED50 is the midpoint of the dose-response relation. Low readings indicate greater potency, high ones weaker potency. The IC50 is the concentration that inhibits the measured activity by half.

These data come from US6476046B1, “Diazabicyclo[4.3.0]nonanes, and methods of use thereof” (Sepracor, Inc., priority 2000, dated 2002).
